pEC50: −log10 of the molar value. Values joined by “and” are separate entries in the source; they are usually repeats but may differ in a detail not shown here. Identical values can stand only once.
assay: RSV-A Assay: The description is Japanese.

Compound | pEC50 | EC50
O=C1Nc2ccccc2C(c2ccccc2)=NC1Nc1nnc(-c2ncc(N3CCOCC3)cc2F)o1 (centres undefined) | > 6.40 | –
COC(=O)c1ncc(C#N)cc1N1CCOCC1 | > 6.40 | –
O=C1Nc2ccccc2C(c2ccccc2)=N[C@@H]1Nc1nnc(-c2ncc(C3CC3)cc2N2CCOCC2)o1 | > 6.40 | –
Cn1c(N2CCOCC2)c(-c2nnc(N[C@H]3N=C(c4ccccc4)c4ccccc4NC3=O)o2)ccc1=O | > 6.40 | –
O=C1Nc2ccccc2C(c2ccccc2)=N[C@@H]1Nc1nnc(-c2cnc(N3CCOCC3)cn2)o1 | < 6.10 | –
O=C(O)c1ccncc1N1CCCCC1 | < 6.10 | –
O=C1Nc2ccccc2C(c2ccccc2)=NC1Nc1nnc(-c2ccncc2N2CCOCC2)o1 (centres undefined) | – | in the range around 0.6 µM
Cn1cc(N2CCOCC2)c(-c2nnc(N[C@H]3N=C(c4ccccc4)c4ccccc4NC3=O)o2)n1 | > 6.40 | –
NNC(=O)c1ccc(N2CCOCC2)cc1C(F)(F)F | < 6.10 | –
O=C1Nc2ccccc2C(c2ccccc2)=N[C@@H]1Nc1nnc(-c2cnc(N3CC4CCC(C3)O4)nc2)o1 | < 6.10 | –
CCc1nc(N2CCOCC2)c(-c2nnc(N[C@H]3N=C(c4ccccc4)c4ccccc4NC3=O)o2)cc1C#N | > 6.40 | –
CCOC(=O)c1cnc(C2CC2)nc1N1CCOCC1 | > 6.40 | –
O=C1Nc2ccccc2C(c2ccccc2)=NC1Nc1nnc(-c2cccc(F)c2N2CCOCC2)o1 (centres undefined) | < 6.10 | –
N#Cc1cnc(N2CCOCC2)c(-c2nnc(N[C@H]3N=C(c4ccccc4)c4ccccc4NC3=O)o2)c1 | > 6.40 | –
O=C1Nc2ccccc2C(c2ccccc2)=NC1Nc1nnc(-c2ncc(C(F)(F)F)cc2N2CCOCC2)o1 (centres undefined) | > 6.40 | –
O=C1Nc2ccccc2C(c2ccccc2)=NC1Nc1nnc(-c2ccc(F)nc2N2CCOCC2)o1 (centres undefined) | – | in the range around 0.6 µM and < 0.4 µM
Cc1ccc(C(=O)O)c(N2CCOCC2)n1 | > 6.40 | –
O=C1Nc2ccccc2C(c2ccccc2)=N[C@@H]1Nc1nnc(-c2cnc(-n3cncn3)nc2N2CCOCC2)o1 | < 6.10 | –
Cc1nc(N2CCOCC2)c(-c2nnc(N[C@H]3N=C(c4ccccc4)c4ccccc4NC3=O)o2)cc1C#N | > 6.40 | –
O=C1Nc2ccccc2C(c2ccccc2)=N[C@@H]1Nc1nnc(-c2cnc(N3CCOCC3)nc2)o1 | – | in the range around 0.6 µM

Compound | pEC50 | EC50
O=C1Nc2ccccc2C(c2ccccc2)=N[C@@H]1Nc1nnc(-c2ccc(C(F)(F)F)cc2N2CCOCC2)o1 | > 6.40 | –
O=C1Nc2ccccc2C(c2ccccc2)=NC1Nc1nnc(-c2c(F)cc(N3CCOCC3)cc2F)o1 (centres undefined) | < 6.10 | –
NNC(=O)c1cc(F)cnc1N1CCOCC1 | – | in the range around 0.6 µM
O=C1Nc2ccccc2C(c2ccccc2)=N[C@@H]1Nc1nnc(-c2cnc(-n3cccn3)nc2N2CCOCC2)o1 | < 6.10 | –
N#Cc1cnc(-c2nnc(NC3N=C(c4ccccc4)c4ccccc4NC3=O)o2)c(N2CCOCC2)c1 (centres undefined) | > 6.40 | –
CCOC(=O)c1nc2ccccn2c1N | < 6.10 | –
N#Cc1ccc(-c2nnc(N[C@H]3N=C(c4ccccc4)c4ccccc4NC3=O)o2)c(N2CCOCC2)c1 | > 6.40 | –
O=C(O)c1cnc(C(F)(F)F)nc1N1CCOCC1 | > 6.40 | –
O=C1Nc2ccccc2C(c2ccccc2)=N[C@@H]1Nc1nnc(-c2ccc(F)nc2N2CCOCC2)o1 | > 6.40 | –
COC(=O)c1ccc(Cl)nc1N1CCOCC1 | > 6.40 | –
COC(=O)c1cc(Br)c(C2CC2)nc1Cl | > 6.40 | –
O=C1Nc2ccccc2C(c2ccccc2)=NC1Nc1nnc(-c2ncc(N3CCOCC3)cc2Cl)o1 (centres undefined) | < 6.10 | –
O=C1Nc2ccccc2C(c2ccccc2)=N[C@@H]1Nc1nnc(-c2ncc(Br)cc2N2CCOCC2)o1 | > 6.40 | –
Cn1ncc(-c2nnc(N[C@H]3N=C(c4ccccc4)c4ccccc4NC3=O)o2)c1N1CCOCC1 | < 6.10 | –
CCOC(=O)c1c(F)cc(F)cc1F | < 6.10 | –
CCOC(=O)c1ccc(F)cc1N1CCOCC1 | > 6.40 | –
CCOC(=O)c1ccc(C2CC2)nc1Cl | > 6.40 | –
O=C1Nc2ccccc2C(c2ccccc2)=NC1Nc1nnc(-c2nccnc2N2CCOCC2)o1 (centres undefined) | > 6.40 | –
O=C1Nc2ccccc2C(c2ccccc2)=NC1Nc1nnc(-c2cc(C(F)(F)F)cnc2N2CCOCC2)o1 (centres undefined) | < 6.10 | –

From ChEMBL document CHEMBL5729210, “Benzodiazepine derivatives as RSV inhibitors” (2022)
